Patent publication US20100204157A1, “USE OF A PEPTIDE AS A THERAPEUTIC AGENT” (priority 2007, published 2010)
Where no end group is shown, it is not given here.

How the values were obtained:
HepG2-2.2.15 cells = test: Cell viability in HepG2-2.2.15 cells (dye uptake); format: cell-based; settings: test peptide 10 micrograms per ml, dye uptake assay
CEM-SS cells = test: Cytotoxicity in CEM-SS cells (MTS); settings: peptide 10 micrograms per ml, MTS
HIV-1IIIB = test: HIV-1 antiviral assay (CPE reduction, MTS); format: cell-based; settings: peptide 10 micrograms per ml, 6 days post-infection
MRC-5 cells = settings: human, 6 days
Description: (§1) For cytotxicity testing, MRC-5 cells were seeded at 2,500 cells/well in 96 well plates using growth medium. […] The following day, peptide were added and tested in duplicates. After a 6 days incubation period, cell viability was measured using CellTiter 96 Solution (Promega). Plates were incubated for additional 4 hours at 37° C.

MRSA = test: Methicillin Resistant Staphylococcus Aureus (MRSA) assay; format: cell-based; settings: MRSA growth; peptide 10 micrograms per ml; read visually
[1] = Cytotoxicity in CEM-SS cells (MTS); settings: human
[2] = Cell viability in HepG2-2.2.15 cells (dye uptake); format: cell-based; settings: human, HepG2-2.2.15 cells (stable line containing HBV ayw genome), test peptide 10 micrograms per ml, dye uptake assay
[3] = Cytotoxicity in MRC-5 cells (CellTiter 96); settings: human, MRC-5 cells (embryonal lung fibroblasts)
Description: as §1

Streptococcus pneumoniae = Streptococcus pneumoniae assay; format: cell-based; settings: Streptococcus pneumoniae growth; peptide 10 micrograms per ml; read visually
Description: The antibacterial assay was conducted using clear, U-bottom 96-well microtiter plates. Cation-adjusted Mueller-Hinton Broth (MHB) was used for testing Streptococcus pneumoniae. The peptide of the invention (0.1 ml of each—10 micrograms per ml—) were dispensed into wells in duplicate. Then the wells were inoculated with 5×10^5 CFU/mL Streptococcus pneumoniae in 0.1 ml volume. For control purposes, each plate included 4 wells containing media without bacterial inoculum and 4 wells containing medium with inoculum but without peptide. The plates were incubated for 12 h at 37° C., and read visually 18-24 hours post-incubation. Growth control of Streptococcus pneumoniae was examined first to determine adequacy of media preparations and growth conditions. Acceptable growth is defined as ≧2 mm wide button of cells at the bottom of each sample well, or obvious turbidity in the culture supernatant. Test wells were examined and scored as positive/negative for activity. A positive score for activity is based on complete inhibition of macroscopic growth of the test Streptococcus pneumoniae.

Pseudomonas aeruginosa = Pseudomonas aeruginosa assay; format: cell-based; settings: Pseudomonas aeruginosa growth; peptide 10 micrograms per ml; read visually
Description: The antibacterial assay was conducted using clear, U-bottom 96-well microtiter plates. Cation-adjusted Mueller-Hinton Broth (MHB) was used for testing Pseudomonas aeruginosa. The peptide of the invention (0.1 ml of each—10 micrograms per ml—) were dispensed into wells in duplicate. Then the wells were inoculated with 5×10^5 CFU/mL Pseudomonas aeruginosa in 0.1 ml volume. For control purposes, each plate included 4 wells containing media without bacterial inoculum and 4 wells containing medium with inoculum but without peptide. The plates were incubated for 12 h at 37° C., and read visually 18-24 hours post-incubation. Growth control of Pseudomonas aeruginosa was examined first to determine adequacy of media preparations and growth conditions. Acceptable growth is defined as ≧2 mm wide button of cells at the bottom of each sample well, or obvious turbidity in the culture supernatant. Test wells were examined and scored as positive/negative for activity. A positive score for activity is based on complete inhibition of macroscopic growth of the test Pseudomonas aeruginosa.

With Nc1ccn([C@@H]2CS[C@H](CO)O2)c(=O)n1 [3TC, Lamivudine, reference compound] the “% Cell Viability” value (HepG2-2.2.15 cells) was 95.8%.

For Cc1cn([C@H]2C[C@H](N=[N+]=[N-])[C@@H](CO)O2)c(=O)[nH]c1=O [AZT, reference compound], the “% Cell Viability” value (CEM-SS cells) was 97% and the “% CPE reduction in HIV-1 infected CEM-SS cells” value (HIV-1IIIB) was 99%.

With Nc1nc(O)c2ncn(COC(CO)CO)c2n1 [Ganciclovir] the “% Cell Viability” value (MRC-5 cells) was 100%.

In the case of FFVAP [Phe-Phe-Val-Ala-Pro], the “% inhibition” value (MRSA) is reported as 0.0%, the viability at 10 micrograms per ml [1] is reported as 100% and the viability at 144 h, 10 micrograms per ml [2] is reported as 98.1%. The viability at 144 h [3] was 100%, the “% inhibition” value (Streptococcus pneumoniae) was 0.0% and the “% inhibition” value (Pseudomonas aeruginosa) was 0.0%.
